From patent publication US8569358B2, “Use of silymarin and/or constituents thereof as skin or hair pigmentation promoters” (GreenPharma, priority 2005, dated 2013)
Values joined by “and” are separate entries in the source; they are usually repeats but may differ in a detail not shown here. Equal values may be shown once. Each block holds one molecule with its values, some of them ahead of it.

Key:
[1] = molecular target: T1, receptor MC1-R (melanocortin-1 receptor) (Mus musculus, UniProt Q01727); assay: Displacement of [125I]NDP-alpha-MSH from receptor MC1-R; format: binding
T1 sequence (Q01727 whole entry): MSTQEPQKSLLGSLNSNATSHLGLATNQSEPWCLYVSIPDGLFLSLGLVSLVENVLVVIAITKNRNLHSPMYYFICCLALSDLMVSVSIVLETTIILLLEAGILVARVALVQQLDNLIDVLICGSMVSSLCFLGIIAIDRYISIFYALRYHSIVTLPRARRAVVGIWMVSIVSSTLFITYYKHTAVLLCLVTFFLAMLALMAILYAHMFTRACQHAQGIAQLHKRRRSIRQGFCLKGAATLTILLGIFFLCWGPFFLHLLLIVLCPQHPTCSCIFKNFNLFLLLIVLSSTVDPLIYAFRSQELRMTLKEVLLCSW
Protocol: The binding of silybin to the receptor MC1-R (melanocortin-1 receptor) was studied.
Silybin was tested in a test of displacement of an extremely powerful MC1-R ligand: displacement of [^125I]NDP-alpha-MSH, (according to Siegrist et al, 1988, J. Recept. Res., 8: 323-343).

[2] = system: B16F10-line mouse melanoma cells; assay: Cytotoxicity (MTT) and amount of proteins (Bradford), B16F10 cultures; format: cell-based; conditions: for Proteins / MTT: 7 days; for MTT: control = 100
Text: (§1) after culturing for 7 days under standard conditions, in 24-well plates, DMEM medium containing 10% calf serum:
the cytotoxicity, by estimating the […] of MTT, the amount of proteins, by assay according to the Bradford method and observation of the cell lawns, […]

keratinocytes = assay: Proliferation/protein synthesis of keratinocytes; format: cell-based
normal human melanocytes [3] = assay: Melanin synthesis by normal human melanocytes (10-day culture); format: cell-based; conditions: 10 days
Protocol: The melanogenesis-stimulating effect of silybin was measured on normal human melanocyte cultures.
(§2) For silybin, the following were determined:
(§3) after culturing for 10 days under standard conditions, in 24-well plates, in Promocell medium free of “phorbol myristate acetate” (PMA):
the amount of melanin present in the cultures, by spectrophotometric measurement of the melanin produced, after alkaline extraction, relative to 100% of the control (the control corresponds to the test performed without test compound);

normal human melanocytes [4] = assay: Protein synthesis (3H-leucine incorporation), normal human melanocytes; format: cell-based; conditions: for Protein synthesis (3H-leucine), % of control / Protein synthesis (3H-leucine), cpm: 3 days; for Protein synthesis (3H-leucine), cpm: labelling last 24 hours
Protocol: (§4) after culturing for 3 days under standard conditions:
the effects on the metabolism of normal human melanocytes by incorporation of tritiated leucine into neosynthesized proteins (labelling for the last 24 hours).

normal human melanocytes [5] = assay: Cytotoxicity (MTT reduction) and amount of proteins (Bradford), normal human melanocyte cultures; format: cell-based; conditions: for Proteins / MTT: 10 days; for MTT: control = 100
Text: as §3
the cytotoxicity, by estimating the reduction of “methyl thiazolyl tetrazolium” (MTT), the amount of proteins, by assay according to the Bradford method and observation of the cell lawns, […]

[6] = system: B16F10-line mouse melanoma cells; assay: Melanin synthesis by B16F10-line melanocytes (7-day culture); format: cell-based; conditions: 7 days
Protocol: The melanogenesis-stimulating effect of silybin was measured on B16F10-line mouse melanoma cells.
as §2, §1
the amount of melanin present in the cultures, by spectrophotometric measurement of the melanin produced, after alkaline extraction, relative to 100% of the control (the control corresponds to the test performed without test compound).

[7] = system: normal human hair follicles; assay: Protection against degeneration of cultured human hair follicles; format: cell-based; conditions: precultured 7 days, then treated 7 days
Text: The aim of this test is to show the effect of the compounds used according to the invention on degeneration of the follicles in in vitro cultures of human hair follicles.
Method: Normal human hair follicles are isolated by microdissection of human scalp (lifting) and cultured as in Example 4. The bulbs are all precultured (“aged”, without treatment) for 7 days (D7), and then left untreated or treated by the invention for a further 7 days (D14). The follicles are photographed and the morphology is analysed.

[8] = system: normal human keratinocytes; assay: Phagocytosis of fluorescent beads by keratinocytes (flow cytometry); format: cell-based; conditions: for % Positive cells (cells which have phagocytozed more than twice the basal phagocytosis), single replicates / Positive cells, % Control / % Positive cells, Mean: 24 hours; for % Positive cells, Mean: triplicate
Protocol: The aim of this test is to show the effect of the compounds used according to the invention on modulation of the phagocytosis of particles by the keratinocytes.
Method: Normal human keratinocytes are cultured in KSFM medium and treated for 24 hours with the compounds according to the invention, in the presence of calibrated fluorescent beads (Molecular Probes) of the size of melanosomes. The phagocytosis of the particles is visualized by fluorescence microscopy, and the cells are then harvested after trypsination and analysed by flow cytometry, to determine the number of cells that have phagocytozed a threshold number of particles and the intensity of the phagocytozed overall fluorescence (10 000 cells analysed per condition, in triplicate).

normal human melanocytes [9] = assay: Proliferation (3H-thymidine incorporation), normal human melanocytes; format: cell-based; conditions: 3 days; for Proliferation (3H-thymidine), cpm: labelling last 24 hours
Protocol: as §4
the effects on the proliferation of normal human melanocytes by incorporation of tritiated thymidine into DNA (labelling for the last 24 hours),

[10] = molecular target: T1, receptor MC1-R (melanocortin-1 receptor); conditions: of the order of; read-out: Affinity of the ligand for MC1-R; cited from earlier work

Displacement of [125I]NDP-alpha-MSH ([1]; at 100 μM (0.005%)): 10%
Displacement of [125I]NDP-alpha-MSH ([1]; at 500 μM): 30%
Molecule: COc1cc(C2Oc3cc([C@H]4Oc5cc(O)cc(O)c5C(=O)[C@@H]4O)ccc3OC2CO)ccc1O (stereo partly drawn) [Silybin, 2-[(2R,3R)-2,3-dihydro-3-(4-hydroxy-3-methoxyphenyl)-2-(hydroxymethyl)-1,4-benzodioxin-6-yl]-2,3-dihydro-3,5,7-trihydroxy-4H-1-benzopyran-4-one, (2R,3R)-(9CI)]
Proteins ([2]; 0.00004%): 1.553 mg/mL
MTT ([2]; 0.00004%): 100%
Proteins ([2]; 0.0002%): 1.594 mg/mL
MTT ([2]; 0.0002%): 100%
Proteins ([2]; 0.001%): 1.457 mg/mL
MTT ([2]; 0.001%): 89%
Cell metabolism according to MTT and protein synthesis parameters (in words) ([2]; B16F10): without modification of the cell metabolism
Effect on proliferation/protein synthesis of keratinocytes (keratinocytes): did not otherwise show any effect
Melanin (normal human melanocytes [3]; 0.00004% (w/v)): 31.9 µg/mL
Melanin, % relative to 100% of the control (normal human melanocytes [3]; 0.00004% (w/v)): 115%
Melanin (normal human melanocytes [3]; 0.0002% (w/v)): 37.1 µg/mL
Melanin, % relative to 100% of the control (normal human melanocytes [3]; 0.0002% (w/v)): 134%
Melanin (normal human melanocytes [3]; 0.001% (w/v)): 41.5 µg/mL
Melanin, % relative to 100% of the control (normal human melanocytes [3]; 0.001% (w/v)): 150%
Protein synthesis (3H-leucine), % of control (normal human melanocytes [4]; 0.0002%): 120%
Protein synthesis (3H-leucine), cpm (normal human melanocytes [4]; 0.0002%): 11705 cpm
Protein synthesis (3H-leucine), % of control (normal human melanocytes [4]; 0.001%): 124%
Protein synthesis (3H-leucine), cpm (normal human melanocytes [4]; 0.001%): 12099 cpm
Protein synthesis increase (normal human melanocytes [4]; protein neosynthesis over 72 hours): 20%
Proteins (normal human melanocytes [5]; 0.00004% (w/v)): 0.765 mg/mL
MTT (normal human melanocytes [5]; 0.00004% (w/v)): 113%
Proteins (normal human melanocytes [5]; 0.0002% (w/v)): 0.792 mg/mL
MTT (normal human melanocytes [5]; 0.0002% (w/v)): 126%
Proteins (normal human melanocytes [5]; 0.001% (w/v)): 0.830 mg/mL
MTT (normal human melanocytes [5]; 0.001% (w/v)): 128%
Cytotoxic activity (in words) (normal human melanocytes [5]; normal human melanocytes): without any cytotoxic activity
Melanin ([6]; 0.00004%): 13.0 µg/mL
Melanin, % relative to 100% of the control ([6]; 0.00004%): 100%
Melanin ([6]; 0.0002%): 15.0 µg/mL
Melanin, % relative to 100% of the control ([6]; 0.0002%): 115%
Melanin ([6]; 0.001%): 33.0 µg/mL
Melanin, % relative to 100% of the control ([6]; 0.001%): 250% and 254%
Pigmentation of the hair root [7]: display pigmentation of all of the hair root
% Positive cells (cells which have phagocytozed more than twice the basal phagocytosis), single replicates ([8]; 0.0002%): 44.29% and 42.92% and 45.88%
Positive cells, % Control ([8]; 0.0002%): 124%
% Positive cells, Mean ([8]; 0.0002%): 44%
% Positive cells (cells which have phagocytozed more than twice the basal phagocytosis), single replicates ([8]; 0.001%): 52.19% and 50.74% and 49.94%
Positive cells, % Control ([8]; 0.001%): 143%
% Positive cells, Mean ([8]; 0.001%): 51%
Phagocytosis of fluorescent particles (in words) ([8]; flow cytometry and fluorescence microscopy): significant and reproducible stimulation of phagocytosis
Proliferation (3H-thymidine), % of control (normal human melanocytes [9]; 0.0002%): 83%
Proliferation (3H-thymidine), cpm (normal human melanocytes [9]; 0.0002%): 5638 cpm
Proliferation (3H-thymidine), % of control (normal human melanocytes [9]; 0.001%): 53%
Proliferation (3H-thymidine), cpm (normal human melanocytes [9]; 0.001%): 3622 cpm

Molecule: [^125I]NDP-alpha-MSH
Kd [10]: ~0.1 nM
